Source: article PMC10853515, “Identification of potential inhibitor against Leishmania donovani mitochondrial DNA primase through in-silico and in vitro drug repurposing approaches” (Scientific Reports, 2024)

Biological target: T1, mitochondrial DNA primase (LdmtPRI1) (Leishmania donovani, UniProt A0A3S7WXR7)
T1 construct: gene LdCL_230015100; recombinant histidine-tagged LdmtPRI1 (pET28a), purified from E. coli BL21
T1 sequence (A0A3S7WXR7 1-533): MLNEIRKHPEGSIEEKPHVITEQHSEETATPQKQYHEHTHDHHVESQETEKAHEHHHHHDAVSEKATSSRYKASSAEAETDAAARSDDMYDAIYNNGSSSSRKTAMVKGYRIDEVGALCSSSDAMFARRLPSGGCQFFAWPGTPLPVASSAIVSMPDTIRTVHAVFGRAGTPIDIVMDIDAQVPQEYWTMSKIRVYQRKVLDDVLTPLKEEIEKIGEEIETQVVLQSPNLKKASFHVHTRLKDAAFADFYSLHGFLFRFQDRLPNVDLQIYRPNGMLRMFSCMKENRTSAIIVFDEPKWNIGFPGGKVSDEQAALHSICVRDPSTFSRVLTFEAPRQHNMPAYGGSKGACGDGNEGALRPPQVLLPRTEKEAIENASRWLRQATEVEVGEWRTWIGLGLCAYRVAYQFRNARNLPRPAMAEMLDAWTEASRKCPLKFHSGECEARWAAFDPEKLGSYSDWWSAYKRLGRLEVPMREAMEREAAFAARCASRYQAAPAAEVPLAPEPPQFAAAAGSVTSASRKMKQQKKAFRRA
Test: coupled primase-pyrophosphatase malachite green assay, purified enzyme
Assay type: biochemical

IC50 [nM] | SMILES
15.27 ± 0.03 | CCCCCOC(=O)Nc1nc(=O)n([C@@H]2O[C@H](C)[C@@H](O)[C@H]2O)cc1F [capecitabine]
20.68 ± 0.03 | C/C(=C(\CCOP(=O)(O)O)SC(=O)c1ccccc1)N(C=O)Cc1cnc(C)nc1N [benfotiamine]
